Earlier results as cited in patent US20040120916A1, “Contact lens care compositions, methods of use and preparation which protect ocular tissue membrane integrity” (ADVANCED MEDICAL OPTICS, INC., priority 2002, published 2004).

Key:
[1] = tested on: rat large-intestinal tissue; conditions: decrease caused by sodium laurate
[2] = tested on: human corneal epithelial cells; conditions: 450 mOsm/kg hypertonic medium; 1 mM taurine (0.0125 w/v %)
[3] = tested on: lipopolysaccharide (LPS)-intoxicated rats; conditions: LPS rat stomachs irrigated with acid solution
[4] = tested on: rat large-intestinal tissue

Structure (SMILES): NCCS(=O)(=O)O [taurine]
- transepithelial electrical resistance, a measure of cell membrane integrity [1]: significantly suppressed the decrease
- cell survival [2]: significantly increased cell survival
- ulcerogenic parameters including mucosal histamine concentrations [3]: dose-dependent attenuations
- release of histamine enhanced by sodium laurate [4]: suppress the release of histamine
